Among the data in patent publication US12479847B2 (DANA-FARBER CANCER INSTITUTE, INC., priority 2019, dated 2025) are remaining binding values, retold here.

Assay in all cases: KINOMEscan (ScanMAX) kinase profiling
Common to all, as to format: binding

The target in experiment [1] is T1, panel of 468 kinases (Homo sapiens, UniProt O15075).
T1 construct: purchased KINOMEscan (ScanMAX) service
The settings on record: DCAMKL1; 1 μM; read-out: % control.

The target of experiment [2] is T2, panel of 468 kinases (Homo sapiens, UniProt P49841).
T2 construct: purchased KINOMEscan (ScanMAX) service
T2 sequence (P49841 whole entry): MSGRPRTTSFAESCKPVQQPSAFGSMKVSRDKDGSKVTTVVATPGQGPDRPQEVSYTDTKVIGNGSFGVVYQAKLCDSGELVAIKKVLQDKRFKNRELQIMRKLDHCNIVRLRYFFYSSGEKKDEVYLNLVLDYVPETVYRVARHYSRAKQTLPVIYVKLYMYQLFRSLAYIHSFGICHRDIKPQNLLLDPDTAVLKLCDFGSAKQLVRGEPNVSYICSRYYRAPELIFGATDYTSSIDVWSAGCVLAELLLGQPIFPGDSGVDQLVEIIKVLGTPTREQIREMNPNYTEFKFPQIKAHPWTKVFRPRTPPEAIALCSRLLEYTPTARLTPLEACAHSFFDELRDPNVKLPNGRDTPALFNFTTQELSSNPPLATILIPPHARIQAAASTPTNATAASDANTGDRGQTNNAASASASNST
The following applies: GSK3B; 1 μM; read-out: % control.

In experiment [3] the target is T3, panel of 468 kinases (Homo sapiens, UniProt Q04912).
T3 construct: purchased KINOMEscan (ScanMAX) service
T3 sequence (Q04912 25-1400): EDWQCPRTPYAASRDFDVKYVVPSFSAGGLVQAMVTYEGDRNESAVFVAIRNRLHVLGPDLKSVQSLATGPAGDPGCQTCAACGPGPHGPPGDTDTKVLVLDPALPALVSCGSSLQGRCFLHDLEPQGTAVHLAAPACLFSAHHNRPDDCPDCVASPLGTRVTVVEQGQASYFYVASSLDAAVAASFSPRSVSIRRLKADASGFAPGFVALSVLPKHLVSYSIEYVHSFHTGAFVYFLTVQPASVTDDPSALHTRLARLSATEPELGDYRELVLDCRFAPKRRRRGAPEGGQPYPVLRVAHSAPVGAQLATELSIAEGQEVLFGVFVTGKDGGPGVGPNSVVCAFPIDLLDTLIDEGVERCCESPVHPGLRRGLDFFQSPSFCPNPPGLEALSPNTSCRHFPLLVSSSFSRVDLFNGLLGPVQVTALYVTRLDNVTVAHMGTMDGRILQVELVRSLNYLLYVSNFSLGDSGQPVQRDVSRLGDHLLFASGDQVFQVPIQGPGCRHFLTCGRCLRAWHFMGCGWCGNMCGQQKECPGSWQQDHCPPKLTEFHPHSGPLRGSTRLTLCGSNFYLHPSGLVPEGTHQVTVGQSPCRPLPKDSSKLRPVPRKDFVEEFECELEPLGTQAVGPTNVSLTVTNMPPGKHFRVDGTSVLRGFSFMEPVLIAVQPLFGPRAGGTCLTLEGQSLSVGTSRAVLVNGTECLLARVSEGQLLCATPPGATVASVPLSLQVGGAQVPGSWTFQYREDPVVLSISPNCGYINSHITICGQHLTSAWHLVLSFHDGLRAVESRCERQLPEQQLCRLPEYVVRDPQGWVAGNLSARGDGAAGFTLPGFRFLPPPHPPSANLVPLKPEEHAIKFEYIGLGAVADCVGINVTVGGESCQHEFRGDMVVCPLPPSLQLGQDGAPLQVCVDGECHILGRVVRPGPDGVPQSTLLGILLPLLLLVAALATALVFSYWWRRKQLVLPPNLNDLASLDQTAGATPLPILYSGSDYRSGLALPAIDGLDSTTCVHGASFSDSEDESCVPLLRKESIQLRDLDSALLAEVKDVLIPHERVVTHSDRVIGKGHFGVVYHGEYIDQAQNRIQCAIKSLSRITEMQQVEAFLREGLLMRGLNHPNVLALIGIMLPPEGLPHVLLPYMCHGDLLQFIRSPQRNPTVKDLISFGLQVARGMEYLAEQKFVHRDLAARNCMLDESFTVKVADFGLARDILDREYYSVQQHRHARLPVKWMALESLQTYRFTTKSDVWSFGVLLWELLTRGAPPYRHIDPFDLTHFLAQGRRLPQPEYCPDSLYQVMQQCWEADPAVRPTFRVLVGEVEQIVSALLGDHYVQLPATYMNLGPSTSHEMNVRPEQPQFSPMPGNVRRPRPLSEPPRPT
The following applies: MST1R; 1 μM; read-out: % control.

Experiment [4] deals with T4, panel of 468 kinases (Homo sapiens, UniProt Q07912).
T4 construct: purchased KINOMEscan (ScanMAX) service
T4 sequence (Q07912 whole entry): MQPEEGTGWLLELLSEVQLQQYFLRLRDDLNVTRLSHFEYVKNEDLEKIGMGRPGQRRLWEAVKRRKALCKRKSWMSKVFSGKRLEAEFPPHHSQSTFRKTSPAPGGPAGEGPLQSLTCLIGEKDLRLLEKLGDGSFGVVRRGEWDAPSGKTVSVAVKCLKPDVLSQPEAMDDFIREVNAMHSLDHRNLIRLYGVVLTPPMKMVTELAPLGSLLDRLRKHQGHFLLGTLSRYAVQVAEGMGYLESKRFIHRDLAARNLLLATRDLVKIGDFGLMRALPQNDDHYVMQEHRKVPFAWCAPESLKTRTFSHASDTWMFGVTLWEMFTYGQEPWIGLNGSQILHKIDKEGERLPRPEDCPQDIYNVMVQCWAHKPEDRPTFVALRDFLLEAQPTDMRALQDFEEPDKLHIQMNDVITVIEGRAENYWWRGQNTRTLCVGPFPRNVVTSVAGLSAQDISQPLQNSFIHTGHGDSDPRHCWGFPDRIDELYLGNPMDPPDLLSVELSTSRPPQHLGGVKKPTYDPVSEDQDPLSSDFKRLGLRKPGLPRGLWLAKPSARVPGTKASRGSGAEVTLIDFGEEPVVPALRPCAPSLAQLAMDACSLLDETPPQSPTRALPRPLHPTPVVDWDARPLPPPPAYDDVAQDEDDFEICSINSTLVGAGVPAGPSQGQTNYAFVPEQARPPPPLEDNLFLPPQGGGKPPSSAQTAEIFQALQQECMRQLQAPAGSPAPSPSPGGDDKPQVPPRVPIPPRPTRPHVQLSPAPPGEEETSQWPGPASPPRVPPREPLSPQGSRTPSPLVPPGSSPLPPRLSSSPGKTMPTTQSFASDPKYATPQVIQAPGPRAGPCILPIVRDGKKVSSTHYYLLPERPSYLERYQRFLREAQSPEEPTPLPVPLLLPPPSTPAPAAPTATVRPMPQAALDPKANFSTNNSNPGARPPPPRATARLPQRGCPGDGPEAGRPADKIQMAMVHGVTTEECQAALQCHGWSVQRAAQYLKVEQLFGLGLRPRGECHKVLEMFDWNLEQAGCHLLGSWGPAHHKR
The settings on record: TNK2; 1 μM; read-out: % control.

In experiment [5] the target is T5, panel of 468 kinases (Homo sapiens, UniProt Q13546).
T5 construct: purchased KINOMEscan (ScanMAX) service
T5 sequence (Q13546 1-671): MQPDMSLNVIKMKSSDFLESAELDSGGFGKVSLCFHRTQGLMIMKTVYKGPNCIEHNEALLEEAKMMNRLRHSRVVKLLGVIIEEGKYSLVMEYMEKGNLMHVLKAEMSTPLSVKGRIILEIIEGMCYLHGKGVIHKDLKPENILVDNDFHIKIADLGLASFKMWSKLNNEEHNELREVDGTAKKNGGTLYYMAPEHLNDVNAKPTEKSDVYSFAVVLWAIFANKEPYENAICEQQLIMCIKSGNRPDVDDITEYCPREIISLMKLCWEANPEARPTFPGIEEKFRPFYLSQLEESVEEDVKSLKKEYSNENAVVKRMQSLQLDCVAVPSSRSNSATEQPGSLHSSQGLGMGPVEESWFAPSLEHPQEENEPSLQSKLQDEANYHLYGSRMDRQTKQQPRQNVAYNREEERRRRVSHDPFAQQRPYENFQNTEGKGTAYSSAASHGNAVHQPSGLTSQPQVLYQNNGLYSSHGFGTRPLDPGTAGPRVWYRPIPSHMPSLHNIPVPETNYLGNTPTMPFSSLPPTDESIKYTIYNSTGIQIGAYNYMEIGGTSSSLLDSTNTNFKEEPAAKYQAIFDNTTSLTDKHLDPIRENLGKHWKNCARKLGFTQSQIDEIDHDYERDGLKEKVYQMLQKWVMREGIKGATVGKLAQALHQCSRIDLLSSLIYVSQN
The settings on record: RIPK1; 1 μM; read-out: % control.

The target in experiment [6] is T6, panel of 468 kinases (Homo sapiens, UniProt Q5S007).
T6 construct: purchased KINOMEscan (ScanMAX) service
The following applies: LRRK2; 1 μM; read-out: % control.

For experiment [7], the target named is T7, panel of 468 kinases (Homo sapiens, UniProt Q8TBX8).
T7 construct: purchased KINOMEscan (ScanMAX) service
T7 sequence (Q8TBX8 1-421): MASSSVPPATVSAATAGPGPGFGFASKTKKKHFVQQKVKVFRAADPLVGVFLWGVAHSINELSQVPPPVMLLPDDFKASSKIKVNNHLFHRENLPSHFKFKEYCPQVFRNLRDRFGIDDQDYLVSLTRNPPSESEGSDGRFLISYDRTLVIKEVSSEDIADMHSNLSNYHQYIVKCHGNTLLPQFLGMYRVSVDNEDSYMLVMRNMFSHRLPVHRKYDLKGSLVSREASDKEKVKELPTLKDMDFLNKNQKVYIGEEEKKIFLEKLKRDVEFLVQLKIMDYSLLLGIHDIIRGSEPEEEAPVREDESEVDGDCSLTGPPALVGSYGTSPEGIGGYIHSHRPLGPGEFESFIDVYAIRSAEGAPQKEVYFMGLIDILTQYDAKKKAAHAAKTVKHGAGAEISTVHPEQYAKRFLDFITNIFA
The following applies: PIP5K2C; 1 μM; read-out: % control.

Experiment [8] concerns the target T8, panel of 468 kinases (Homo sapiens, UniProt Q8WTQ7).
T8 construct: purchased KINOMEscan (ScanMAX) service
T8 sequence (Q8WTQ7 1-553): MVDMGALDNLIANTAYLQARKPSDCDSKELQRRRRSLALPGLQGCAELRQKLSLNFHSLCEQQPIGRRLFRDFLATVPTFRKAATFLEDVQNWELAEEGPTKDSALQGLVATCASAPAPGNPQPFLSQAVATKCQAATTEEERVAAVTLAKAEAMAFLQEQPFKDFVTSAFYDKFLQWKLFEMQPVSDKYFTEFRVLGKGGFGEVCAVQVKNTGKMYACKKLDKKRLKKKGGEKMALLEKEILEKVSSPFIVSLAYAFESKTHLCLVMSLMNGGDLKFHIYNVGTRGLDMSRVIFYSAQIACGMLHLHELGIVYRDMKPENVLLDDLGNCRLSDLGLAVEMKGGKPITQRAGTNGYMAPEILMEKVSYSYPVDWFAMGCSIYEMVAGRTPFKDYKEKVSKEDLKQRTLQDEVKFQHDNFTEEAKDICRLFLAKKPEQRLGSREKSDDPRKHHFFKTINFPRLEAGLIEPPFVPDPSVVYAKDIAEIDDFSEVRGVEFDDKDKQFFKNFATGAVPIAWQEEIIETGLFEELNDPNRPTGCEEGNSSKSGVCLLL
The settings on record: GRK7; 1 μM; read-out: % control.

Experiment [9] concerns the target T9, panel of 468 kinases (Homo sapiens, UniProt Q9NY57).
T9 construct: purchased KINOMEscan (ScanMAX) service
The following applies: YANK2; 1 μM; read-out: % control.

The target of experiment [10] is T10, panel of 468 kinases (Plasmodium falciparum, UniProt P62344).
T10 construct: purchased KINOMEscan (ScanMAX) service
T10 sequence (P62344 whole entry): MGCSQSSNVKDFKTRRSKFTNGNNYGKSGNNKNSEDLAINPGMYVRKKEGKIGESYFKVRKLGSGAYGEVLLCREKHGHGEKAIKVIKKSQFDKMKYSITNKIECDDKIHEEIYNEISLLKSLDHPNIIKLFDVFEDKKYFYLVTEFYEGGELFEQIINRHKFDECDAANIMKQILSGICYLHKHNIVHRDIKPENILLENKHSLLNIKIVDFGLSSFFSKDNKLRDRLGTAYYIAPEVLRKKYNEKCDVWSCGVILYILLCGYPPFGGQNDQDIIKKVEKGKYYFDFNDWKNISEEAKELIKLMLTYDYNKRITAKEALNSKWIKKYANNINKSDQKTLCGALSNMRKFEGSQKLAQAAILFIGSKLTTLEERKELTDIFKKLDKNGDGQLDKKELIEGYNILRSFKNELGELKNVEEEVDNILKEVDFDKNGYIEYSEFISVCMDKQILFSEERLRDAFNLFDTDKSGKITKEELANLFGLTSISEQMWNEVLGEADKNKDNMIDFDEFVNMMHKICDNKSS
The following applies: PFCDPK1(P.falciparum); 1 μM; read-out: % control.

T9 sequence (Q9NY57 whole entry): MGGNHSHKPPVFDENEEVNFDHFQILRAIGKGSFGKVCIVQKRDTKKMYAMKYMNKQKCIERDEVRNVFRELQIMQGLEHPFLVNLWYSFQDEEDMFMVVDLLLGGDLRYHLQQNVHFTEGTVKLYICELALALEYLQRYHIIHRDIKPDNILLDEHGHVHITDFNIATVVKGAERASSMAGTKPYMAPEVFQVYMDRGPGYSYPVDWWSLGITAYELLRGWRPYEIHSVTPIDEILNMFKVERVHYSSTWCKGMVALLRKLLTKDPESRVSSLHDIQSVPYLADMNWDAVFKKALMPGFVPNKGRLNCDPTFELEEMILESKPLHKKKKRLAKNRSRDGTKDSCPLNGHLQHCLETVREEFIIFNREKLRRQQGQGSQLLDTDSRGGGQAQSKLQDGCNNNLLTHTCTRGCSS
T1 sequence (O15075 whole entry): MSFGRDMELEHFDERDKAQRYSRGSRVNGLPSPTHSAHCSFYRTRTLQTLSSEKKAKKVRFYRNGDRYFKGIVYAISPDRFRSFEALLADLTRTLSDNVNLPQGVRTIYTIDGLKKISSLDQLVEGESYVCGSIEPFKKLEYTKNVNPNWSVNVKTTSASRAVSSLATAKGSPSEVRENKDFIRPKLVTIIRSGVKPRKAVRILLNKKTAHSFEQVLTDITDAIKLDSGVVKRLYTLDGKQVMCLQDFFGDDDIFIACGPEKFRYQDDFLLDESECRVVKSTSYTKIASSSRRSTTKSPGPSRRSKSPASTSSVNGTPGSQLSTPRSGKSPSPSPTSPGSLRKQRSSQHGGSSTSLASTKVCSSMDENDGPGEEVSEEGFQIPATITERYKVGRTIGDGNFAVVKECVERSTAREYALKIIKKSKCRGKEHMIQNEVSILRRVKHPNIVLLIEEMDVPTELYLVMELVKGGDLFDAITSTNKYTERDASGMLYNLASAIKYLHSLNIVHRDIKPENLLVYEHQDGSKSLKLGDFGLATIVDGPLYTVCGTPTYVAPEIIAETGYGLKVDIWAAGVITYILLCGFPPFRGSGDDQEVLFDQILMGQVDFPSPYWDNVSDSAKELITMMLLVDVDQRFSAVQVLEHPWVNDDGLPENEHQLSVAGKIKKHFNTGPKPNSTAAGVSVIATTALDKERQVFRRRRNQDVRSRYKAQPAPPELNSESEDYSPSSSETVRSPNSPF

For `CNc1nc(Nc2ccc(C(=O)N3CCC(N4CCOCC4)CC3)c3c2OCO3)nc2[nH]cc(Cl)c12` [Compound 75, (7-((5-chloro-4-(methylamino)-7H-pyrrolo[2,3-d]pyrimidin-2-yl)amino)benzo[d][1,3]dioxol-4-yl)(4-morpholinopiperidin-1-yl)methanone], the remaining binding at 1 µM worked out at 74% on panel of 468 kinases [1]; 97% at panel of 468 kinases [2]; 100% at panel of 468 kinases [3]; 100% at panel of 468 kinases [4]; 89% on panel of 468 kinases [5]; 1.4% on panel of 468 kinases [6]. Besides, the remaining binding at 1 µM was determined as 0% on panel of 468 kinases [7], 100% on panel of 468 kinases [8], 100% at panel of 468 kinases [9] and 99% at panel of 468 kinases [10].
For the compound `CNc1nc(Nc2ccc(P3(=O)CCN(C4CCOCC4)CC3)cc2OC)nc2[nH]cc(Cl)c12` [Compound 77, 4-(4-((5-chloro-4-(methylamino)-7H-pyrrolo[2,3-d]pyrimidin-2-yl)amino)-3-methoxyphenyl)-1-(tetrahydro-2H-pyran-4-yl)-1,4-azaphosphinane 4-oxide], the remaining binding at 1 µM at panel of 468 kinases [1] was found to be 74%; on panel of 468 kinases [2] it was 100%; at panel of 468 kinases [3], 100%; at panel of 468 kinases [4], 81%; at panel of 468 kinases [5], 88%; on panel of 468 kinases [6], 0.4%. Further, the remaining binding at 1 µM at panel of 468 kinases [7] amounted to 39%; at panel of 468 kinases [8] it was 99%; on panel of 468 kinases [9], 100%; at panel of 468 kinases [10], 90%.
As for `CNc1nc(Nc2ccc(S(=O)(=O)N3CCC(N4CCOCC4)CC3)cc2OC)nc2[nH]cc(Cl)c12` [Compound 12, 5-chloro-N2-(2-methoxy-4-((4-morpholinopiperidin-1-yl)sulfonyl)phenyl)-N4-methyl-7H-pyrrolo[2,3-d]pyrimidine-2,4-diamine], the remaining binding at 1 µM on panel of 468 kinases [1] stood at 94%; on panel of 468 kinases [2] it was 96%; on panel of 468 kinases [3] it was 100%; on panel of 468 kinases [4], 100%; at panel of 468 kinases [5] it was 92%; on panel of 468 kinases [6], 0.8%. In addition, the remaining binding at 1 µM turned out to be 28% on panel of 468 kinases [7], 100% on panel of 468 kinases [8], 96% at panel of 468 kinases [9] and 97% at panel of 468 kinases [10].
